These results are taken from patent US5574061A, “Benzopyran derivative, process for producing the same and pharmaceutical composition containing the same” (priority 1990, dated 1996).

The target of assay [1] is T1, ACAT enzyme (rabbit intestinal mucosa microsome) (Oryctolagus cuniculus, UniProt G1SFD9).
T1 sequence (G1SFD9 1-524): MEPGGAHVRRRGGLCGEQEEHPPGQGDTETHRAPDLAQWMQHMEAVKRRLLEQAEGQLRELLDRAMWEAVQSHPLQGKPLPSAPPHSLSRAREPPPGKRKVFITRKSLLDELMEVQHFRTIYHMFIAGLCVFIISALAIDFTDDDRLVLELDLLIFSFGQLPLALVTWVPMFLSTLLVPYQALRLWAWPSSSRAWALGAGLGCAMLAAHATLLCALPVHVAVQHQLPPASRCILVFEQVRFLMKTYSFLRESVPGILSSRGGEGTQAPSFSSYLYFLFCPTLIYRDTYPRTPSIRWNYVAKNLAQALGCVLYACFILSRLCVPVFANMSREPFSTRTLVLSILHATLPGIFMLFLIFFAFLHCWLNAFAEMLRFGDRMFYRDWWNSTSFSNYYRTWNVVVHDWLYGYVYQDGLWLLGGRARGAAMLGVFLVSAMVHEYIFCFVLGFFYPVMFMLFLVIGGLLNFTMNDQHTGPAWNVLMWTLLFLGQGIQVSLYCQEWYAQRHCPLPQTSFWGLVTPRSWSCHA
Procedure: Measurement of ACAT enzyme inhibitory activity (measurement of ACAT enzyme inhibitory activity of rabbit intestinal mucosa)
Preparation of a domestic rabbit intestinal mucosa microsome and measurement of the ACAT enzyme activity were conducted by slightly modifying a method established by Salone and Field (see Biochemica et Biophysica, vol. 712, 557 (1982). The domestic rabbit intestinal mucosa was homogenized by using a 40 mM phosphate buffer having a pH value of 7.4 (buffer A) containing 30 mM EDTA, 50 mM KCl and 0.1M sucrose and centrifuged at 10,000×g and a temperature of 4° C. for 30 min to provide a supernatant. The supernatant was further centrifuged at 105,000×g and a temperature of 4° C. for one hr to provide a precipitate. The precipitate was resuspended in the buffer A to provide a microsome fraction.
1% v/v of a dimethylsulfoxide solution of each specimen compound in a predetermined concentration was added to the buffer A containing 43 μM serum albumin and 0.5 mg/ml microsome fraction, and the mixture was heated at 37° C. for 5 min.
Then, 43 μM oleoyl CoA containing [1-^14 C] oleoyl CoA (3.7 kB) was added thereto, the mixture was heated at 37° C. for 10 min, and chloroform/methanol (2/1) containing 10 mg/ml cholesteryl oleate was added thereto to terminate the reaction.
0.111 kB of [3H] cholesteryl oleate and 1N hydrochloric acid were added thereto, and the mixture was stirred. The cholesteryl oleate extracted into the chloroform layer was isolated by a thin-layer chromatography, and the radioactivity was measured as the ACAT activity.

A further assay has as its system serum cholesterol. Nature of the assay: Percentage change of serum cholesterol in rats fed a feed enriched with cholesterol and fat. The class given is in vivo, male Wistar rats. As to conditions: Rattus norvegicus, po, 72 h, Wistar rats, vs control; for change in vivo at 10 mg/kg: 10 mg per kg orally once a day for three days; for change in vivo at 1 mg/kg: 1 mg/kg orally once a day for three days. The source says: Percentage change of serum cholesterol
Male Wistar rats having a weight of 200 g were preliminarily bred for 7 days while they freely ingested a normal feed (CE-2 manufactured by CLEA Japan Inc.).
Thereafter, they were bred for 3 days while they freely ingested a feed enriched with cholesterol and fat (2% cholesterol, 1% cholic acid, 20% casein, 45% fine granulated sugar, 12% coconut oil, 4% KC flock, 1% mixed vitamin, 7% mixed mineral and 8% dried fish powder; a product of CLEA Japan Inc.). […] On the other hand, the excipient alone was administered to the control animals.
8 hr after the last administration, the test animals were fasted. 16 hr after the initiation of the fasting, these test animals were slaughtered. The serum cholesterol level was measured for each animal.
The results were compared with those of the control and are given as percentage serum cholesterol (%) in Table 3.
Percentage change of serum cholesterol (%)={(A-B)/B}×100
wherein A represents the total cholesterol level of serum in the group of rats to which the test compound was administered; and B represents the total cholesterol level of serum in the control group of rats.

Read-outs that look alike come from different tables or passages of the source.

The term IC50 denotes the midpoint of a concentration-inhibition curve. Molecule `CCCCCCCCCCCCNC(=O)Nc1c(C)ccc2c1OCCC2=O` [Ex. 1, 1-Dodecyl-3-(7-methyl-4-chromanon-8-yl)urea] returned an IC50 in assay [1] of 73 nM.

In assay [1], `CCCCCCCCCCC(C)(C)C(=O)Nc1c(OC)ccc2c1OCCC2=O` [Ex. 2, N-(7-Methoxy-4-chromanon-8-yl)-2,2-dimethyldodecanamide] had an IC50 of 13 nM.

`CCCCCCCCCCCCNC(=O)Nc1c(OC)ccc2c1OCCC2(C)C` [Ex. 3] registered an IC50 in assay [1] of 340 nM.

In the case of `COc1ccc2c(c1NC(=O)NCC1(c3ccccc3)CCCC1)OCCC2(C)C` [Ex. 4], the half-maximal inhibitory concentration (IC50) in assay [1] was found to be 690 nM.

As to `Cc1ccc2c(c1NC(=O)NCC1(c3ccccc3)CCCC1)OCCC2=O` [Ex. 6], the IC50 in assay [1] is 530 nM.

In the case of `COc1ccc(C2(CNC(=O)Nc3c(C)ccc4c3OCCC4=O)CCCC2)cc1` [Ex. 7], the IC50 in assay [1] was determined as 500 nM.

`CCCCCCCCCCCCNC(=O)Nc1c(OC)ccc2c(=O)ccoc12` [Ex. 10]: the concentration for half-maximal inhibition (IC50) in assay [1] came to 330 nM.

On to `CCCCCCCCCCC1(C(=O)Nc2ccc(OC)c3c2OCCC3(C)C)CCCC1` [Ex. 13], for which half-maximal inhibition in assay [1] (IC50) was put at 1200 nM.

On to `CCCCCCCCCCCCCCCC(=O)Nc1c(C)ccc2c1OCCC2=O` [Ex. 18], for which, in assay [1], inhibition was half-maximal at 7.8 nM (IC50).

As to `CCCCCCCCCCC(C)(C)C(=O)Nc1c(C)ccc2c1OCCC2=O` [Ex. 19], the change in vivo at 10 mg/kg in the assay on serum cholesterol is -27%. In assay [1], this molecule had an IC50 of 210 nM.

For `CCCCCCCCCCC1(C(=O)Nc2c(C)ccc3c2OCCC3=O)CCCC1` [Ex. 20], in the assay on serum cholesterol, the change in vivo at 10 mg/kg was -29%. In assay [1], this molecule showed an IC50 of 170 nM.

Turning to `Cc1ccc2c(c1NC(=O)C(C)(C)CCCCCc1ccccc1)OCCC2=O` [Ex. 25], in the assay with serum cholesterol, the change in vivo at 10 mg/kg is -32%. In assay [1], this molecule yielded a half-maximal inhibitory concentration (IC50) of 250 nM.

With `Cc1ccc2c(c1NC(=O)C(C)(C)CCCCOCCCC(C)C)OCCC2=O` [Ex. 26], in assay [1], the midpoint of inhibition, the IC50, lay at 340 nM.

Turning to `Cc1ccc2c(c1NC(=O)C(C)(C)CCCCCCOCC(C)(C)C)OCCC2=O` [Ex. 28], in the assay on serum cholesterol, the change in vivo at 10 mg/kg was -31%. For the same molecule, in assay [1], the IC50 amounted to 54 nM.

For the molecule `Cc1ccc2c(c1NC(=O)C(C)(C)CCCCCCOCCCC(C)C)OCCC2=O` [Ex. 29], the change in vivo at 10 mg/kg in the assay with serum cholesterol is -22%. This molecule showed a 50% inhibitory concentration (IC50) in assay [1] of 200 nM.

The molecule `Cc1ccc2c(c1NC(=O)C(C)(C)CCCCOc1ccc(C(C)(C)C)cc1)OCCC2=O` [Ex. 30] came in with a 50% inhibitory concentration (IC50) in assay [1] of 50 nM.

Regarding `Cc1ccc2c(c1NC(=O)C(C)(C)CCCCOc1ccc(Cl)cc1)OCCC2=O` [Ex. 31], it took 510 nM to reach half-maximal inhibition in assay [1] (IC50).

Take `Cc1ccc2c(c1NC(=O)C(C)(C)CCCCCOc1ccc(Cl)cc1)OCCC2=O` [Ex. 32]: in the assay with serum cholesterol, the change in vivo at 10 mg/kg is -33%. In addition, inhibition in assay [1] was half-maximal at 470 nM (IC50).

Consider `COc1ccc2c(c1NC(=O)C(C)(C)CCCCCCBr)OCCC2=O` [Ex. 37, N-(7-methoxy-4-chromanon-8-yl)-2,2-dimethyl-8-bromooctaneamide], for which 25 nM corresponded to half-maximal inhibition in assay [1] (IC50).

In assay [1], `COc1ccc2c(c1NC(=O)C(C)(C)CCCCCCc1ccccc1)OCCC2=O` [Ex. 38] yielded an IC50 of 44 nM.

In assay [1], `COc1ccc2c(c1NC(=O)C(C)(C)CCCCCCOc1ccc(C)cc1)OCCC2=O` [Ex. 40] displayed an IC50 of 43 nM.

On to `COc1ccc2c(c1NC(=O)C(C)(C)CCCCCOc1ccc(Cl)cc1)OCCC2=O` [Ex. 41], for which, in the assay on serum cholesterol, the change in vivo at 1 mg/kg is -40%. The molecule further returned a 50% inhibitory concentration (IC50) in assay [1] of 52 nM.

On to `COc1ccc2c(c1NC(=O)C(C)(C)CCCCCCOc1ccc(Cl)cc1)OCCC2=O` [Ex. 42], for which the change in vivo at 1 mg/kg in the assay on serum cholesterol is -51%. Also, the 50% inhibitory concentration (IC50) in assay [1] is 64 nM.

Molecule `Cc1cc(C)c2c(c1NC(=O)C(C)(C)CCCCCCOCC(C)C)OCCC2=O` [Ex. 43] returned an IC50 in assay [1] of 90 nM.

Molecule `Cc1cc(C)c2c(c1NC(=O)C(C)(C)CCCCCOc1ccc(Cl)cc1)OCCC2=O` [Ex. 44] had an IC50 in assay [1] of 400 nM.

As for `COc1ccc2c(c1NC(=O)C(C)(C)CCCCCCOc1ccc(Cl)cc1)C(=O)CCO2` [Ex. 45], in assay [1], the half-maximal inhibitory concentration (IC50) amounted to 180 nM.

`CCCCCCCCCCC(C)(C)C(=O)Nc1c(Cl)ccc2c1OCCC2=O` [Ex. 47] had an IC50 in assay [1] of 150 nM.

In assay [1], `CCCCCCCCCCC(C)(C)C(=O)Nc1c(OCCC)ccc2c1OCCC2=O` [Ex. 48] yielded a half-inhibitory concentration (IC50) of 14 nM.

As for `CCCCCCCCCCCCCCC(C)(C)C(=O)Nc1c(OC)ccc2c(=O)ccoc12` [Ex. 49], in assay [1] (read-out: ACAT Inhibitory Activity, IC50, rabbit intestinal mucosa microsome, [1-14C] oleoyl CoA, 37° C.), the 50% inhibitory concentration (IC50) turned out to be 52 nM.

For the molecule `CCCCCCCCCCC1(C(=O)Nc2c(OC)ccc3c(=O)ccoc23)CCCC1` [Ex. 50], the change in vivo at 10 mg/kg in the assay with serum cholesterol was -27%. For the same molecule, half-maximal inhibition in assay [1] (IC50) required 270 nM.

In the case of `COc1ccc2c(=O)ccoc2c1NC(=O)C(C)(C)CCCCOc1ccc(C(C)(C)C)cc1` [Ex. 51], the half-maximal inhibitory concentration (IC50) in assay [1] amounted to 190 nM.

`COc1ccc2c(=O)ccoc2c1NC(=O)C(C)(C)CCCCCOc1ccc(Cl)cc1` [Ex. 52]: the change in vivo at 3 mg/kg in the assay on serum cholesterol (3 mg/kg orally once a day for three days) is -17%. Also, in assay [1], the IC50 was found to be 160 nM.

`CCCCCCCCCCC(C)(C)C(=O)Nc1c(OC)ccc2c(=O)cc(CC)oc12` [Ex. 54]: the IC50 in assay [1] came to 780 nM.

The molecule `COc1ccc2c(c1NC(=O)C(C)(C)CCCCCCOc1ccc(N(C)C)cc1)OCCC2=O` [Ex. 55, N-(7-Methoxy-4-chromanon-8-yl)-2,2-dimethyl-8-p-dimethylaminophenoxyoctaneamide] returned a concentration for half-maximal inhibition (IC50) in assay [1] of 81 nM.
